The compounds below were run on 293T-HRE-GFP-luc cells (assay: Cell-based reporter assay for IC50 determinations (HRE-luciferase, hypoxia)). Details: 6 h, 6 hrs hypoxia (1% O2), luminescence.
Outline: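 IC50s come from four-parameter logistic fits of luminescence. Compounds in 1:3 DMSO series were added to 293T-HRE-GFP-luc cells, 30 min normoxia preceding 6 hrs at 1% O2, 37° C; HRE-luciferase signal was then measured with Steadylite Plus reagent.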
For `O=c1ccc(-c2nc(-c3ccc(OC(F)(F)F)cc3)no2)cn1Cc1ccc(F)c(Br)c1` [Example 135, 1-[(3-bromo-4-fluorophenyl)methyl]-5-{3-[4-(trifluoromethoxy)phenyl]-1,2,4-oxadiazol-5-yl}-1,2-dihydropyridin-2-one], the IC50 was 0.1 to 1 µM. For `COc1ccc(Cn2cc(-c3nc(-c4ccc(OC(F)(F)F)cc4)no3)ccc2=O)cc1` [Example 136, 1-[(4-methoxyphenyl)methyl]-5-{3-[4-(trifluoromethoxy)phenyl]-1,2,4-oxadiazol-5-yl}-1,2-dihydropyridin-2-one], the IC50 was < 0.1 µM. For `CN1CCN(c2cc(Cn3cc(-c4nc(-c5ccc(OC(F)(F)F)cc5)no4)ccc3=O)ccc2F)CC1` [Example 137, 1-{[4-fluoro-3-(4-methylpiperazin-1-yl)phenyl]methyl}-5-{3-[4-(trifluoromethoxy)phenyl]-1,2,4-oxadiazol-5-yl}-1,2-dihydropyridin-2-one], the IC50 was < 0.1 µM. For `O=c1ccc(-c2nc(-c3ccc(OC(F)(F)F)cc3)no2)cn1Cc1ccc(F)c(N2CCOCC2)c1` [Example 138, 1-{[4-fluoro-3-(morpholin-4-yl)phenyl]methyl}-5-{3-[4-(trifluoromethoxy)phenyl]-1,2,4-oxadiazol-5-yl}-1,2-dihydropyridin-2-one], the IC50 was < 0.1 µM. With `O=c1ccc(-c2nc(-c3ccc(OC(F)(F)F)cc3)no2)cn1Cc1ccc(F)c(N2CCC(O)CC2)c1` [Example 139, 1-{[4-fluoro-3-(4-hydroxypiperidin-1-yl)phenyl]methyl}-5-{3-[4-(trifluoromethoxy)phenyl]-1,2,4-oxadiazol-5-yl}-1,2-dihydropyridin-2-one] the IC50 was < 0.1 µM. `CNC(=O)c1cc(Cn2nc(-c3nc(-c4ccc(OC(F)(F)F)cc4)no3)ccc2=O)ccc1F` [Example 140, 2-fluoro-N-methyl-5-[(6-oxo-3-{3-[4-(trifluoromethoxy)phenyl]-1,2,4-oxadiazol-5-yl}-1,6-dihydropyridazin-1-yl)methyl]benzamide] was tested, and the IC50 was < 0.1 µM. In the case of `O=c1ccc(-c2nc(-c3ccc(OC(F)(F)F)cc3)no2)cn1Cc1cccc(Br)c1` [Example 141, 1-[(3-bromophenyl)methyl]-5-{3-[4-(trifluoromethoxy)phenyl]-1,2,4-oxadiazol-5-yl}-1,2-dihydropyridin-2-one], the IC50 is reported as 0.1 to 1 µM. `O=C(Cc1cccc(Cn2nc(-c3nc(-c4ccc(OC(F)(F)F)cc4)no3)ccc2=O)c1)N1CCOCC1` [Example 142, 2-({3-[2-(morpholin-4-yl)-2-oxoethyl]phenyl}methyl)-6-{3-[4-(trifluoromethoxy)phenyl]-1,2,4-oxadiazol-5-yl}-2,3-dihydropyridazin-3-one] was tested, and the IC50 was 0.1 to 1 µM. In the case of `CN1CCN(C(=O)Cc2cccc(Cn3nc(-c4nc(-c5ccc(OC(F)(F)F)cc5)no4)ccc3=O)c2)CC1` [Example 143, 2-({3-[2-(4-methylpiperazin-1-yl)-2-oxoethyl]phenyl}methyl)-6-{3-[4-(trifluoromethoxy)phenyl]-1,2,4-oxadiazol-5-yl}-2,3-dihydropyridazin-3-one], the IC50 is reported as 0.1 to 1 µM. For `O=c1ccc(-c2nc(-c3ccc(OC(F)(F)F)cc3)no2)cn1Cc1cccc(N2CCOCC2)c1` [Example 144, 1-{[3-(morpholin-4-yl)phenyl]methyl}-5-{3-[4-(trifluoromethoxy)phenyl]-1,2,4-oxadiazol-5-yl}-1,2-dihydropyridin-2-one], the IC50 was < 0.1 µM. `CN(C)c1cccc(Cn2cc(-c3nc(-c4ccc(OC(F)(F)F)cc4)no3)ccc2=O)c1` [Example 145, 1-{[3-(dimethylamino)phenyl]methyl}-5-{3-[4-(trifluoromethoxy)phenyl]-1,2,4-oxadiazol-5-yl}-1,2-dihydropyridin-2-one] was tested, and the IC50 was < 0.1 µM. In the case of `O=c1ccc(-c2nc(-c3ccc(OC(F)(F)F)cc3)no2)cn1Cc1cccc([N+](=O)[O-])c1` [Example 146, 1-[(3-nitrophenyl)methyl]-5-{3-[4-(trifluoromethoxy)phenyl]-1,2,4-oxadiazol-5-yl}-1,2-dihydropyridin-2-one], the IC50 is reported as 0.1 to 1 µM. With `O=c1ccc(-c2nc(-c3ccc(OC(F)(F)F)cc3)no2)cn1Cc1cccc(OCCO)c1` [Example 147, 1-{[3-(2-hydroxyethoxy)phenyl]methyl}-5-{3-[4-(trifluoromethoxy)phenyl]-1,2,4-oxadiazol-5-yl}-1,2-dihydropyridin-2-one] the IC50 was < 0.1 µM. For `CCOc1cccc(Cn2cc(-c3nc(-c4ccc(OC(F)(F)F)cc4)no3)ccc2=O)c1` [Example 148, 1-[(3-ethoxyphenyl)methyl]-5-{3-[4-(trifluoromethoxy)phenyl]-1,2,4-oxadiazol-5-yl}-1,2-dihydropyridin-2-one], the IC50 was < 0.1 µM. For `CN(C)C(=O)COc1cccc(Cn2cc(-c3nc(-c4ccc(OC(F)(F)F)cc4)no3)ccc2=O)c1` [Example 149, N,N-dimethyl-2-{3-[(2-oxo-5-{3-[4-(trifluoromethoxy)phenyl]-1,2,4-oxadiazol-5-yl}-1,2-dihydropyridin-1-yl)methyl]phenoxy}acetamide], the IC50 was < 0.1 µM. With `CC(C)(C)OC(=O)NCCOc1cccc(Cn2cc(-c3nc(-c4ccc(OC(F)(F)F)cc4)no3)ccc2=O)c1` [Example 150, tert-butyl N-(2-{3-[(2-oxo-5-{3-[4-(trifluoromethoxy)phenyl]-1,2,4-oxadiazol-5-yl}-1,2-dihydropyridin-1-yl)methyl]phenoxy}ethyl)carbamate] the IC50 was < 0.1 µM. `Cc1cccc(Cn2cc(-c3nc(-c4ccc(OC(F)(F)F)cc4)no3)ccc2=O)c1` [Example 152, 1-[(3-methylphenyl)methyl]-5-{3-[4-(trifluoromethoxy)phenyl]-1,2,4-oxadiazo-5-yl}-1,2-dihydropyridin-2-one] was tested, and the IC50 was < 0.1 µM. With `N#CC1CCN(c2cc(Cn3cc(-c4nc(-c5ccc(OC(F)(F)F)cc5)no4)ccc3=O)ccn2)CC1` [Example 153, 1-{4-[(2-oxo-5-{3-[4-(trifluoromethoxy)phenyl]-1,2,4-oxadiazol-5-yl}-1,2-dihydropyridin-1-yl)methyl]pyridin-2-yl}piperidine-4-carbonitrile] the IC50 was < 0.1 µM. `CC1(C)CCN(c2cc(Cn3cc(-c4nc(-c5ccc(OC(F)(F)F)cc5)no4)ccc3=O)ccn2)CC1` [Example 154, 1-{[2-(4,4-dimethylpiperidin-1-yl)pyridin-4-yl]methyl}-5-{3-[4-(trifluoromethoxy)phenyl]-1,2,4-oxadiazol-5-yl}-1,2-dihydropyridin-2-one] was tested, and the IC50 was < 0.1 µM. With `COC(=O)Cc1cccc(Cn2cc(-c3nc(-c4ccc(OC(F)(F)F)cc4)no3)ccc2=O)c1` [Example 155, methyl 2-{3-[(2-oxo-5-{3-[4-(trifluoromethoxy)phenyl]-1,2,4-oxadiazol-5-yl}-1,2-dihydropyridin-1-yl)methyl]phenyl}acetate] the IC50 was < 0.1 µM. `CN1CCN(C(=O)Cc2cccc(Cn3cc(-c4nc(-c5ccc(OC(F)(F)F)cc5)no4)ccc3=O)c2)CC1` [Example 156, 1-({3-[2-(4-methylpiperazin-1-yl)-2-oxoethyl]phenyl}methyl)-5-{3-[4-(trifluoromethoxy)phenyl]-1,2,4-oxadiazol-5-yl}-1,2-dihydropyridin-2-one] was tested, and the IC50 was < 0.1 µM. For `CN(C)C(=O)Cc1cccc(Cn2cc(-c3nc(-c4ccc(OC(F)(F)F)cc4)no3)ccc2=O)c1` [Example 157, N,N-dimethyl-2-{3-[(2-oxo-5-{3-[4-(trifluoromethoxy)phenyl]-1,2,4-oxadiazol-5-yl}-1,2-dihydropyridin-1-yl)methyl]phenyl}acetamide], the IC50 was < 0.1 µM. For `O=c1ccc(-c2nc(-c3ccc(OC(F)(F)F)cc3)no2)cn1Cc1ccnc(N2CCOCC2)c1` [Example 158, 1-{[2-(morpholin-4-yl)pyridin-4-yl]methyl}-5-{3-[4-(trifluoromethoxy)phenyl]-1,2,4-oxadiazol-5-yl}-1,2-dihydropyridin-2-one], the IC50 was < 0.1 µM. With `O=c1ccc(-c2nc(-c3ccc(OC(F)(F)F)cc3)no2)cn1Cc1ccnc(N2CCCC2)c1` [Example 159, 1-{[2-(pyrrolidin-1-yl)pyridin-4-yl]methyl}-5-{3-[4-(trifluoromethoxy)phenyl]-1,2,4-oxadiazol-5-yl}-1,2-dihydropyridin-2-one] the IC50 was < 0.1 µM. `O=c1ccc(-c2nc(-c3ccc(OC(F)(F)F)cc3)no2)cn1Cc1cccc(N2CCCCC2)c1` [Example 160, 1-{[3-(piperidin-1-yl)phenyl]methyl}-5-{3-[4-(trifluoromethoxy)phenyl]-1,2,4-oxadiazol-5-yl}-1,2-dihydropyridin-2-one] was tested, and the IC50 was < 0.1 µM. In the case of `CCS(=O)(=O)c1cccc(Cn2cc(-c3nc(-c4ccc(OC(F)(F)F)cc4)no3)ccc2=O)c1` [Example 161, 1-{[3-(ethanesulfonyl)phenyl]methyl}-5-{3-[4-(trifluoromethoxy)phenyl]-1,2,4-oxadiazol-5-yl}-1,2-dihydropyridin-2-one], the IC50 is reported as < 0.1 µM. `COC(=O)C(C)(C)c1cccc(Cn2cc(-c3nc(-c4ccc(OC(F)(F)F)cc4)no3)ccc2=O)c1` [Example 162, methyl 2-methyl-2-{3-[(2-oxo-5-{3-[4-(trifluoromethoxy)phenyl]-1,2,4-oxadiazol-5-yl}-1,2-dihydropyridin-1-yl)methyl]phenyl}propanoate] was tested, and the IC50 was < 0.1 µM. `O=c1ccc(-c2nc(-c3ccc(OC(F)(F)F)cc3)no2)cn1Cc1ccnc(N2CCC(O)CC2)c1` [Example 163, 1-{[2-(4-hydroxypiperidin-1-yl)pyridin-4-yl]methyl}-5-{3-[4-(trifluoromethoxy)phenyl]-1,2,4-oxadiazol-5-yl}-1,2-dihydropyridin-2-one] was tested, and the IC50 was < 0.1 µM. `CCN(CC)S(=O)(=O)c1cccc(Cn2cc(-c3nc(-c4ccc(OC(F)(F)F)cc4)no3)ccc2=O)c1` [Example 164, N,N-diethyl-3-[(2-oxo-5-{3-[4-(trifluoromethoxy)phenyl]-1,2,4-oxadiazol-5-yl}-1,2-dihydropyridin-1-yl)methyl]benzene-1-sulfonamide] was tested, and the IC50 was < 0.1 µM. In the case of `CNS(=O)(=O)c1cccc(Cn2cc(-c3nc(-c4ccc(OC(F)(F)F)cc4)no3)ccc2=O)c1` [Example 165, N-methyl-3-[(2-oxo-5-{3-[4-(trifluoromethoxy)phenyl]-1,2,4-oxadiazol-5-yl}-1,2-dihydropyridin-1-yl)methyl]benzene-1-sulfonamide], the IC50 is reported as < 0.1 µM.
